According to patent US9988644B2, “Compounds for improved viral transduction” (bluebird bio, Inc., priority 2011, dated 2018):

Key:
CD34+ cells [1] = assay: FACS staining for ALD after transduction with ALD (ABCD1)-expressing lentivirus in presence of dmPGE2; format: cell-based, human; conditions: ABCD1 MOI 25
Experimental: One vial of CD34+ cells (AllCells) were thawed by incubating at 37° C. for 1-2 minutes and contents were transferred to 10 mL Stem Cell Growth Media (hereafter referred to as SCGM) in a 15-mL conical tube. Cells were spun for 5 minutes at 1500 RPM in a standard tabletop centrifuge, resuspended in 10 mL SCGM and counted on a hemacytometer. A volume correlating with an appropriate number of cells was transferred to a fresh 15-mL conical tube, and again spun for 5 minutes at 1500 RPM. Cells were resuspended to the desired cell concentration in SCGM+1× cytokines (100 ng/mL SCF, 100 ng/mL TPO, 100 ng/mL FltL, and 30 ng/mL IL-3), and plated on a sterile non-adherent surface at 37° C. in a standard humidified tissue culture incubator (5% CO2).
Pre-stimulated cells (Example 1) were counted after 18-24 hours of culture. The cells were collected and spun for 5 minutes at 1500 RPM. 1.2×10^6 pre-stimulated CD34^+ cells were resuspended in 60 uL 10× cytokines (1000 ng/mL SCF, 1000 ng/mL TPO, 1000 ng/mL FltL, and 300 ng/mL IL-3), 7.8 uL protamine sulfate, 111 uL viral supernatant, and 361.2 uL SCGM. 90 uL cell/virus suspension (about 200,000 cells) was added to each well of a standard non-adherent 96-well plate. dmPGE2 was added during this viral transduction step at a final concentration of 100 uM, 50 uM, 25 uM, 12.5 uM, 1 uM, or 0 uM.
Aliquots of 10 mM dmPGE2 in DMSO were prepared from 1 mg previously processed dmPGE2 (Cayman Chemicals). Briefly, air was pipetted into the vial of dmPGE2 until methyl acetate was evaporated. 263 uL DMSO was added to the PGE2 remaining in the vial, and aliquots of 25 uL were added to 1.5 mL Eppendorf tubes and stored at −80° C. 10× working stock solutions were prepared by serial dilution of dmPGE2 in SCGM, and were then added to cells at appropriate working concentrations, according to Table 2. Cells were then incubated at 37° C. in a standard humidified tissue culture incubator (5% CO2).
After 24 hours of culture with virus and dmPGE2, cells were washed prior to subsequent functional validation assays. Washing was performed by transferring cells to a 96-well U-bottom plate and spinning for 5 minutes at 1500 RPM in a standard tabletop centrifuge. Media was aspirated and cells were resuspended in 200 uL SCGM. Cells were spun again for 5 minutes at 1500 RPM and media was aspirated. Cells were again resuspended in 200 uL SCGM then spun for 5 minutes at 1500 RPM, and again the media was aspirated. Particular functional validation assays are described below.
Washed cells were resuspended in 200 uL SCGM+1× cytokines (as described in Example 1) and transferred to a standard 12-well non-adherent tissue culture plate containing an additional 800 uL SCGM+1× cytokines Cells were maintained for an additional 6 days in a standard humidified tissue culture incubator (5% CO2) and then subjected Vector Copy Number analysis (Example 5) and FACS analysis. For FACS analysis, cells were assayed for the presence of a virally-encoded transgene, green fluorescent protein (GFP). The frequency of the virally-labeled cells within the pool of cultured cells was quantified as the frequency of GFP+ cells within the population. The mean fluorescence intensity of labeled cells was quantified.
Tables 3A-C indicate the dose-response of dmPGE2 in promoting viral transduction of CD34+ cells for three separate experiments. […] Cells were then washed and analyzed by flow cytometry and PCR after approximately 1 week in culture. […]

CD34+ cells [2] = assay: Time-course and dose-response of dmPGE2 in promoting viral transduction (GFP+ lentivirus, flow cytometry); format: cell-based, human; conditions: GFP+ lentivirus MOI 25; for percentage of cells positive for GFP, Pre-Stim w/PGE2 Minus 2 Hr: 22-24 hours of culture; for percentage of cells positive for GFP, Pre-Stim w/PGE2 Minus 1 Hr: 23-24 hours of culture; for percentage of cells positive for GFP, Virus and PGE2 Plus 1 Hr: 24-25 hours of culture; for percentage of cells positive for GFP, Virus and PGE2 Plus 2 Hr: 24-26 hours of culture; for percentage of cells positive for GFP, Virus and PGE2 Plus 4 Hr: 24-28 hours of culture; for percentage of cells positive for GFP, Virus and PGE2 24 Hr: 24-48 hours of culture
Experimental: MCD-34+ cells were thawed and pre-stimulated with SCF, TPO, FltL and IL3, then transduced with GFP+ lentivirus at a multiplicity of infection of 25. Cells were exposed to dmPGE2 during the viral transduction step (24-25 hours of culture; 24-26 hours of culture; 24-28 hours of culture; or 24-48 hours of culture) and then washed and analyzed by flow cytometry after approximately 1 week in culture. Alternatively, cells were exposed to dmPGE2 during the pre-stimulation step (22-24 hours of culture; 23-24 hours of culture).

[3] = dmPGE2 1 uM during pre-stimulation
[4] = dmPGE2 12.5 uM during pre-stimulation
[5] = dmPGE2 25 uM during pre-stimulation
[6] = dmPGE2 50 uM during pre-stimulation
[7] = dmPGE2 100 uM during pre-stimulation

CCCCC(C)(C)[C@H](O)/C=C/[C@H]1[C@H](O)CC(=O)[C@@H]1C/C=C\CCCC(=O)O [dmPGE2, 16,16-dimethyl PGE2]
% Positive (ALD via FACS staining) (CD34+ cells [1]; dmPGE2 1 uM during transduction (24-48 hours of culture)): 34.13%
% Positive (ALD via FACS staining) (CD34+ cells [1]; dmPGE2 12.5 uM during transduction (24-48 hours of culture)): 45.36%
% Positive (ALD via FACS staining) (CD34+ cells [1]; dmPGE2 25 uM during transduction (24-48 hours of culture)): 43.76%
% Positive (ALD via FACS staining) (CD34+ cells [1]; dmPGE2 50 uM during transduction (24-48 hours of culture)): 56.10%
% Positive (ALD via FACS staining) (CD34+ cells [1]; dmPGE2 100 uM during transduction (24-48 hours of culture)): 72.26%
percentage of cells positive for GFP, Pre-Stim w/PGE2 Minus 2 Hr (CD34+ cells [2]; [3]): 25.74%
percentage of cells positive for GFP, Pre-Stim w/PGE2 Minus 1 Hr (CD34+ cells [2]; [3]): 22.29%
percentage of cells positive for GFP, Virus and PGE2 Plus 1 Hr (CD34+ cells [2]; dmPGE2 1 uM): 2.94%
percentage of cells positive for GFP, Virus and PGE2 Plus 2 Hr (CD34+ cells [2]; dmPGE2 1 uM): 7.17%
percentage of cells positive for GFP, Virus and PGE2 Plus 4 Hr (CD34+ cells [2]; dmPGE2 1 uM): 21.10%
percentage of cells positive for GFP, Virus and PGE2 24 Hr (CD34+ cells [2]; dmPGE2 1 uM): 32.03%
percentage of cells positive for GFP, Pre-Stim w/PGE2 Minus 2 Hr (CD34+ cells [2]; [4]): 30.64%
percentage of cells positive for GFP, Pre-Stim w/PGE2 Minus 1 Hr (CD34+ cells [2]; [4]): 22.13%
percentage of cells positive for GFP, Virus and PGE2 Plus 1 Hr (CD34+ cells [2]; dmPGE2 12.5 uM): 1.97%
percentage of cells positive for GFP, Virus and PGE2 Plus 2 Hr (CD34+ cells [2]; dmPGE2 12.5 uM): 5.32%
percentage of cells positive for GFP, Virus and PGE2 Plus 4 Hr (CD34+ cells [2]; dmPGE2 12.5 uM): 28.08%
percentage of cells positive for GFP, Virus and PGE2 24 Hr (CD34+ cells [2]; dmPGE2 12.5 uM): 47.42%
percentage of cells positive for GFP, Pre-Stim w/PGE2 Minus 2 Hr (CD34+ cells [2]; [5]): 31.90%
percentage of cells positive for GFP, Pre-Stim w/PGE2 Minus 1 Hr (CD34+ cells [2]; [5]): 24.05%
percentage of cells positive for GFP, Virus and PGE2 Plus 1 Hr (CD34+ cells [2]; dmPGE2 25 uM): 1.76%
percentage of cells positive for GFP, Virus and PGE2 Plus 2 Hr (CD34+ cells [2]; dmPGE2 25 uM): 4.76%
percentage of cells positive for GFP, Virus and PGE2 Plus 4 Hr (CD34+ cells [2]; dmPGE2 25 uM): 27.46%
percentage of cells positive for GFP, Virus and PGE2 24 Hr (CD34+ cells [2]; dmPGE2 25 uM): 50.69%
percentage of cells positive for GFP, Pre-Stim w/PGE2 Minus 2 Hr (CD34+ cells [2]; [6]): 31.85%
percentage of cells positive for GFP, Pre-Stim w/PGE2 Minus 1 Hr (CD34+ cells [2]; [6]): 22.98%
percentage of cells positive for GFP, Virus and PGE2 Plus 1 Hr (CD34+ cells [2]; dmPGE2 50 uM): 1.85%
percentage of cells positive for GFP, Virus and PGE2 Plus 2 Hr (CD34+ cells [2]; dmPGE2 50 uM): 4.23%
percentage of cells positive for GFP, Virus and PGE2 Plus 4 Hr (CD34+ cells [2]; dmPGE2 50 uM): 27.45%
percentage of cells positive for GFP, Virus and PGE2 24 Hr (CD34+ cells [2]; dmPGE2 50 uM): 54.63%
percentage of cells positive for GFP, Pre-Stim w/PGE2 Minus 2 Hr (CD34+ cells [2]; [7]): 34.85%
percentage of cells positive for GFP, Pre-Stim w/PGE2 Minus 1 Hr (CD34+ cells [2]; [7]): 25.14%
percentage of cells positive for GFP, Virus and PGE2 Plus 1 Hr (CD34+ cells [2]; dmPGE2 100 uM): 2.48%
percentage of cells positive for GFP, Virus and PGE2 Plus 2 Hr (CD34+ cells [2]; dmPGE2 100 uM): 4.02%
percentage of cells positive for GFP, Virus and PGE2 Plus 4 Hr (CD34+ cells [2]; dmPGE2 100 uM): 21.57%
percentage of cells positive for GFP, Virus and PGE2 24 Hr (CD34+ cells [2]; dmPGE2 100 uM): 76.44%
